According to patent US20240050466A1, “CELLULAR HEALTH NUTRITIONAL PRODUCT” (GLAXOSMITHKLINE CONSUMER HEALTHCARE HOLDINGS (US) LLC, priority 2020, published 2024):

How the values were obtained:
[1] = Summary of bioefficacy, plausibility and criticality of micronutrients in F2; conditions: grade Low/medium/High, key not given
Source text: Summary Table of Bioefficacy, Plausibility and Criticality of Micronutrients in F2

gene expression = conditions: hesperidin intake in humans; cited from earlier work
[2] = cited from earlier work
[3] = in vivo, cited from earlier work

Compound | Bioefficacy [1] | further results
NCCC(=O)N[C@@H](Cc1cnc[nH]1)C(=O)O [Carnosine, L-Carnosine] | Low | 
COc1ccc([C@@H]2CC(=O)c3c(O)cc(O[C@@H]4O[C@H](CO[C@@H]5O[C@@H](C)[C@H](O)[C@@H](O)[C@H]5O)[C@@H](O)[C@H](O)[C@H]4O)cc3O2)cc1O [Hesperidin, hesperidin] | medium | number of genes whose expression is modulated (gene expression): about 1,819 genes
CC1=C[C@H](O)CC(C)(C)[C@H]1/C=C/C(C)=C/C=C/C(C)=C/C=C/C=C(C)/C=C/C=C(C)/C=C/C1=C(C)C[C@@H](O)CC1(C)C [Lutein, trans-lutein] | medium | 
CC(C)=CCC/C(C)=C/C=C/C(C)=C/C=C/C(C)=C/C=C/C=C(C)/C=C/C=C(C)/C=C/C=C(\C)CCC=C(C)C [Lycopene, lycopene] | High | 
CC(=O)Oc1c(C)c(C)c2c(c1C)CCC(C)(CCC[C@H](C)CCC[C@H](C)CCCC(C)C)O2 (stereo partly drawn) [RRRDL-alpha-Tocopherol Acetate] |  | safe upper limit for adults [2]: 273 mg/day
C[Se]CC[C@H](N)C(=O)O [Selenium, selenomethionine] | medium | reference dose (RfD) or NOAEL for Se ([3]; human): 350 µg/day; reference dose (RfD) or NOAEL for Se per body weight [3]: 5 ug Se/(kg body per day)
O=C1O[C@H]([C@@H](O)CO)C(O)=C1O [Vitamin C, ascorbic acid] | medium | 
Vitamin E | Low | 
